# Experimental data published in the supplement of paper PMC10307832.
# Assays:
# Assay in all cases: relative viability (nuclei count vs DMSO), 5 days (fraction); higher = more cells survive
# [1] = compound: CN1CCN(CC1)C2=CC(=C(C=C2)NC3=NC(=C(S3)C(=O)C4=C(C=CC=C4Cl)Cl)N)OC [XMD14-99] + CC1(C)CCC(c2ccc(Cl)cc2)=C(CN2CCN(c3ccc(C(=O)NS(=O)(=O)c4ccc(N[C@H](CCN5CCOCC5)CSc5ccccc5)c(S(=O)(=O)C(F)(F)F)c4)cc3)CC2)C1 [Navitoclax] (partner 0.5 µM)
# How it was run: (§1)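 A single step with final 0.05% Triton X-100, 1% formaldehyde and 1 ug/ml Hoechst fixed the cells and stained nuclei 5 days after treatment. Lung cancer cell lines in 1536-well plates had been treated by pin tool the day after seeding with one drug alone or a fixed anchor-drug dose plus five library-drug doses (not always all listed) in √10 steps, and nuclei were counted on 4× images. Relative viability is the ratio of nuclei in treated wells to nuclei in vehicle wells, taken as the median of duplicate plates.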
# [2] = compound: CN1CCN(CC1)C2=CC(=C(C=C2)NC3=NC(=C(S3)C(=O)C4=C(C=CC=C4Cl)Cl)N)OC [XMD14-99] + N=C(N)NC(=N)NCCc1ccccc1 [Phenformin] (partner 250 µM)
# How it was run: as §1
# [3] = compound: N[C@@H]1CCCN(c2c(/C=C3\SC(=O)NC3=O)cccc2-c2ccccc2)C1 [AZD1208] + CCNC(=O)c1noc(-c2cc(C(C)C)c(O)cc2O)c1-c1ccc(CN2CCOCC2)cc1 [Luminespib] (partner 0.01 µM)
# How it was run: as §1
# [4] = compound: N[C@@H]1CCCN(c2c(/C=C3\SC(=O)NC3=O)cccc2-c2ccccc2)C1 [AZD1208] + Cc1nc(NC(=O)N2CCC[C@H]2C(N)=O)sc1-c1ccnc(C(C)(C)C(F)(F)F)c1 [Alpelisib] (partner 2 µM)
# How it was run: as §1
Cell Line,relative viability ([1]; first compound 0.08 µM),relative viability ([1]; first compound 0.8 µM),relative viability ([1]; first compound 2.53 µM),relative viability ([1]; first compound 8 µM),relative viability ([2]; first compound 0.08 µM),relative viability ([2]; first compound 0.8 µM),relative viability ([2]; first compound 2.53 µM),relative viability ([2]; first compound 8 µM),relative viability ([3]; first compound 0.08 µM),relative viability ([3]; first compound 0.253 µM),relative viability ([3]; first compound 0.8 µM),relative viability ([3]; first compound 2.53 µM),relative viability ([3]; first compound 8 µM),relative viability ([4]; first compound 0.08 µM),relative viability ([4]; first compound 0.253 µM),relative viability ([4]; first compound 0.8 µM),relative viability ([4]; first compound 2.53 µM),relative viability ([4]; first compound 8 µM)
NCI-H1915,0.833,0.761,0.742,0.737,0.369,0.385,0.36,0.335,0.768,0.811,0.709,0.677,0.678,1.05,1.09,1.05,1.03,1.03
NCI-H1944,1.1,1.04,1.01,0.919,0.194,0.203,0.173,0.157,0.765,0.711,0.548,0.557,0.346,0.864,0.762,0.715,0.726,0.6
NCI-H1975,1.05,1.07,1.14,1.08,0.379,0.41,0.325,0.317,0.235,0.296,0.2,0.228,0.18,0.603,0.64,0.617,0.63,0.607
NCI-H1993,0.978,0.922,0.796,0.694,0.467,0.506,0.447,0.436,0.522,0.561,0.692,0.566,0.523,,0.608,0.683,0.737,0.63
NCI-H2009,1.15,1.1,1.03,0.999,0.482,0.442,0.331,0.251,1.1,1.04,1.06,1.09,1.05,1.13,1.17,1.07,1.13,1.13
NCI-H2023,0.985,0.959,0.953,0.849,0.378,0.422,0.338,0.245,0.677,0.75,0.588,0.597,0.416,0.512,0.448,0.396,0.461,0.45
NCI-H2085,1.11,1.1,1.1,0.823,0.668,0.68,0.681,0.572,0.439,0.388,0.427,0.461,0.381,0.921,0.979,0.885,1.02,1.03
NCI-H2087,0.964,0.897,0.632,0.463,0.445,0.408,0.346,0.2,0.166,0.145,0.14,0.141,0.171,1.04,1.03,1.09,1.13,0.963
NCI-H2126,0.844,0.797,0.879,0.793,0.526,0.51,0.45,0.421,0.9,0.924,0.848,0.799,0.858,0.703,0.724,0.652,0.642,0.624
NCI-H2170,0.574,0.594,0.644,0.603,0.393,0.388,0.342,0.3,0.65,0.656,0.632,0.512,0.321,0.747,0.8,0.707,0.567,0.52
NCI-H2228,1.05,0.933,0.918,0.364,0.382,0.344,0.168,0.152,0.162,0.112,0.125,0.136,0.163,0.706,0.629,0.609,,0.466
NCI-H2347,0.736,0.825,0.699,0.488,0.529,0.422,0.406,0.251,0.416,0.625,0.415,0.371,0.306,1.01,0.936,1.07,0.904,0.96
NCI-H2405,0.825,1.05,0.877,0.436,0.379,0.39,0.373,0.231,0.652,0.464,0.47,0.455,0.517,0.692,0.727,0.637,0.728,0.723
NCI-H3122,0.989,0.945,0.902,0.724,0.372,0.361,0.291,0.237,0.0933,0.129,0.0763,0.0991,0.0841,0.686,0.68,0.647,0.583,0.722
PC-3 [JPC-3],0.794,0.756,0.768,0.667,0.494,0.505,0.517,0.47,0.668,0.7,0.706,0.693,0.588,1.07,1.07,1,1.1,0.946
PC-14,0.983,0.902,0.943,0.726,0.639,0.644,0.517,0.308,0.142,0.151,0.139,0.163,0.181,0.928,1,0.956,0.917,0.931
RERF-LC-KJ,1.01,0.829,0.926,0.607,0.425,0.45,0.375,0.388,1.13,1.22,1.14,1.07,0.838,0.708,0.762,0.703,0.652,0.607
SK-LU-1,0.796,1.02,0.886,0.405,0.523,0.563,0.456,0.322,0.186,0.198,0.194,0.226,0.198,0.792,0.913,0.979,0.9,0.76
